Data set [1] has as its system Klebsiella pneumoniae. The experiment in a line: In vitro activity, tube dilution (MIC), Klebsiella pneumoniae. The class given is cell-based. The following applies: 4 strains; yeast beef broth pH 7.4, 18 h, 37° C.; read-out: MIC (Minimal Inhibitory Concentration), range. As for the experimental part:
(§1) The in vitro activity of Antibiotic 67-694 is ascertained by conventional tube dilution procedures using yeast beef broth medium at pH 7.4. The tubes are incubated for 18 hours at 37° C. prior to being observed.

Data set [2] relates to Staphylococcus aureus. The experiment in a line: In vitro activity, tube dilution (MIC), Staphylococcus aureus. In kind it is cell-based. The following applies: 6 strains; yeast beef broth pH 7.4, 18 h, 37° C.; read-out: MIC (Minimal Inhibitory Concentration), range. As for the experimental part:
as §1

The nature of data set [3]: Solubility. The class given is physicochemical. The conditions noted are these: U.S. Pharmacopea, 17th revision. The text has this:
^a) According to U.S. Pharmacopea, 17th revision (1965) pg. 8

The subject of data set [4] is Staphylococcus aureus gray. The experiment in a line: Protective activity in mice, Staphylococcus aureus gray infection. The class given is in vivo, male CF-1 (Carworth Farms) mice. The conditions noted are these: two doses, survival 48 hours after infection, read-out: PD50. As for the experimental part:
(§2) The protective activity and the acute toxicity of Antibiotic 67-694 is tested in male CF-1 (Carworth Farms) mice weighing approximately 20 gms. each. For protection, the antibiotic is given as a suspension or a solution in an aqueous vehicle containing 0.5% carboxy methyl cellulose (CMC) in two doses; one shortly before and one 4 hours after intraperitoneal infection with the bacteria. Infected and non-treated mice (controls) generally die within 18 hours. Survival rate in the treated group is determined 48 hours after infection.
(§3) The acute toxicity of Antibiotic 67-694 is measured in the standard manner by administering the antibiotic by a variety of routes and determining the LD50 by standard procedures. The results of in vivo tests using a representative gram-positive and a representative gram negative organism are set forth in Tables X and Xi below: […]

Data set [5] is described as follows: pKa. In kind it is physicochemical.
In data set [6] the test system is Streptococcus pyogenes C. In words: Protective activity in mice, Streptococcus pyogenes C infection. In kind it is in vivo, male CF-1 (Carworth Farms) mice. The conditions noted are these: two doses, survival 48 hours after infection, read-out: PD50. As for the experimental part:
as §2, §3

Data set [7] relates to Aerobacter aerogenes. The experiment in a line: In vitro activity, tube dilution (MIC), Aerobacter aerogenes. The following applies: 3 strains; yeast beef broth pH 7.4, 18 h, 37° C.; read-out: MIC (Minimal Inhibitory Concentration), range. The class given is cell-based. As for the experimental part: as §1
The subject of data set [8] is Salmonella schottmuelleri. The experiment in a line: In vitro activity, tube dilution (MIC), Salmonella schottmuelleri. The class given is cell-based. The following applies: 3 strains; yeast beef broth pH 7.4, 18 h, 37° C.; read-out: MIC (Minimal Inhibitory Concentration), range. As for the experimental part: as §1
Data set [9] relates to Proteus sp. In words: In vitro activity, tube dilution (MIC), Proteus sp. The following applies: 3 strains; yeast beef broth pH 7.4, 18 h, 37° C.; read-out: MIC (Minimal Inhibitory Concentration), range. The class given is cell-based. As for the experimental part: as §1
The subject of data set [10] is Diplococcus Pneumoniae. In words: In vitro activity, tube dilution (MIC), Diplococcus Pneumoniae. The class given is cell-based. The following applies: 3 strains; yeast beef broth pH 7.4, 18 h, 37° C.; read-out: MIC (Minimal Inhibitory Concentration), range. As for the experimental part:
as §1

Data set [11] deals with Pseudomonas aeruginosa. In words: In vitro activity, tube dilution (MIC), Pseudomonas aeruginosa. The conditions noted are these: 4 strains; yeast beef broth pH 7.4, 18 h, 37° C.; read-out: MIC (Minimal Inhibitory Concentration), range. The class given is cell-based. As for the experimental part:
as §1

For data set [12] the following is noted: U.S. Pat. No. 3,767,793, cited from earlier work.
For data set [13] the following is noted: in 66% dimethylformamide; data from U.S. Pat. No. 3,767,793; cited from earlier work.
Data set [14] deals with Enterococcus sp. In words: In vitro activity, tube dilution (MIC), Enterococcus sp. In kind it is cell-based. The following applies: 2 strains; yeast beef broth pH 7.4, 18 h, 37° C.; read-out: MIC (Minimal Inhibitory Concentration), range. As for the experimental part: as §1
In data set [15] the test system is gram-positive bacteria. The experiment in a line: Antibacterial activity, general statements. In kind it is cell-based. As for the experimental part:
as §1

Data set [16] deals with Escherichia coli. The experiment in a line: In vitro activity, tube dilution (MIC), Escherichia coli. The following applies: 3 strains; yeast beef broth pH 7.4, 18 h, 37° C.; read-out: MIC (Minimal Inhibitory Concentration), range. In kind it is cell-based. As for the experimental part: as §1
In data set [17] the test system is Bacillus subtilis ATCC 6633. In words: Cylinder cup assay (bioassay potency). In kind it is cell-based. The conditions noted are these: for potency (bioassay): reference standard assigned 1000 mcg/mg. As for the experimental part: The assay technique employed is a cylinder cup assay using Bacillus subtilis ATCC 6633 as the test organism.
The physical conditions of the assay consist of a base layer of 21 ml. and a seed layer of 4 ml. of Antibiotic Medium No. 5. A standard curve is plotted using the following concentrations of antibiotic ([…]) in 0.1 M phosphate buffer (pH 8.0): 0.64, 0.8, 1.0, 1.25, and 1.56. […] The test procedure and the test medium is substantially that described for erythromycin in Assay Methods of Antibiotics, D. C. Grove and W. A. Randall, Medical Encyclopedia Inc., New York, New York (1955) pp. 96-103.

Data set [18] concerns Streptococcus pyogenes. In words: In vitro activity, tube dilution (MIC), Streptococcus pyogenes. The following applies: 7 strains; yeast beef broth pH 7.4, 18 h, 37° C.; read-out: MIC (Minimal Inhibitory Concentration), range. The class given is cell-based. As for the experimental part: as §1
Data set [19] relates to pepsin. In words: Stability to pepsin. In kind it is in vitro ADME. The conditions noted are these: pepsin 1 mg./ml. pH 2.2, 37° C., 24 hours; disc assay E. coli and S. aureus. As for the experimental part:
(§4) Antiobiotic 67-694 has been tested for stability against trypsin, chymotrypsin, pepsin, and α-amylase. Solutions of the enzymes were prepared at 1 mg./ml. in McIlvaines buffers at the optimal pH for the enzyme (i.e. trypsin and chymotrypsin pH 8; pepsin, pH 2.2; and α-amylase pH 4). Two hundred (200) mcg. of antibiotic was dissolved in 0.5 ml. of water, mixed with 0.5 ml. of enzyme solution and incubated at 37° C. for 24 hours. The solutions were disc assayed against Escherichia coli and Staphylococcus aureus after 0, 1, 2.5 and 24 hours incubation.

Data set [20] has as its system trypsin. In words: Stability to trypsin. The conditions noted are these: trypsin 1 mg./ml. pH 8, 37° C., 24 hours; disc assay E. coli and S. aureus. In kind it is in vitro ADME. As for the experimental part: as §4
A short description of data set [21]: Acute toxicity in mice. The arrangement: species or system male CF-1 (Carworth Farms) mice. The conditions noted are these: mouse, in vivo. As for the experimental part: as §2, §3
Data set [22] relates to α-amylase. The experiment in a line: Stability to α-amylase. The following applies: α-amylase 1 mg./ml. pH 4, 37° C., 24 hours; disc assay E. coli and S. aureus. In kind it is in vitro ADME. As for the experimental part: as §4
In data set [23] the test system is chymotrypsin. The experiment in a line: Stability to chymotrypsin. In kind it is in vitro ADME. The conditions noted are these: chymotrypsin 1 mg./ml. pH 8, 37° C., 24 hours; disc assay E. coli and S. aureus. As for the experimental part:
as §4

Structures are written as SMILES. In brackets after ≈: the same amount, converted by molar mass. Where a name gives a salt, the structure may show the parent alone. Read-outs that look alike come from different tables or passages of the source.

On to `CCC1OC(=O)CC(O)C(C)C(OC2OC(C)CC(N(C)C)C2O)C(CC=O)CC(C)C(=O)C=CC2(C)OC2C1C` (centres unmarked) [Antibiotic 67-694], for which the MIC was 0.3 to 3 µg/mL (≈ 0.516 to 5.16 µM) in data set [1]; 0.03 to 3 µg/mL (≈ 0.0516 to 5.16 µM) in data set [2]; 0.75 to 7.5 µg/mL (≈ 1.29 to 12.9 µM) in data set [7]; 0.3 to 3 µg/mL (≈ 0.516 to 5.16 µM) in data set [8]; 0.3 µg/mL (≈ 0.516 µM) in [9]; 0.03 to 0.08 µg/mL (≈ 0.0516 to 0.138 µM) in data set [10]. In addition, the MIC in data set [11] was 0.75 to 3 µg/mL (≈ 1.29 to 5.16 µM); in data set [14], 0.03 µg/mL (≈ 0.0516 µM); in data set [16] it was 3 µg/mL (≈ 5.16 µM); in data set [18], 0.75 to 3 µg/mL (≈ 1.29 to 5.16 µM). Besides, the Solubility result in data set [3] (Acetone) is “Very soluble”; in data set [3] (Benzene), “Very soluble”; in data set [3] (Chloroform), “Very soluble”; in data set [3] (Ether), “Sparingly soluble”; in data set [3] (Methanol), “Very soluble”; in data set [3] (Water), “Slightly soluble”. In addition, the ED50 in data set [4] (oral) is 200 mg/kg; in data set [4] (sc, Subcutaneous), 50 mg/kg; in data set [6] (Oral) it was 200 mg/kg; in data set [6] (sc, Subcutaneous), 50 mg/kg. The pKa (usually the pH at which an ionisable group is half protonated) was 8.7 in data set [5] and 8.4 in data set [13]. Besides, the Solubilities result is reported as “Soluble” in data set [12] (benzene, chloroform, ethyl acetate, dimethylformamide, ethanol or an aqueous acid solution) and “Insoluble” in data set [12] (petroleum ether, n-hexane or a neutral water). Further, the “antibacterial activity / spectrum (in words)” value in data set [15] is “broad antibacterial spectrum in vitro with a greater effect upon gram-positive bacteria”. Further, the “potency (assaying units per mg)” value in data set [17] (purified by silicic acid column, Example 4) is given as “about 1,000 units per mg”. For the same molecule, the “Stability to enzymes: loss in activity” value in data set [19], in data set [20], in data set [22] and in [23] was “no substantial loss in activity” each time. Moreover, the LD50 (in general, the dose expected to kill half of the subjects tested) in [21] (ip, Intraperitoneal) is 350 mg/kg; in data set [21] (sc, Subcutaneous), 625 mg/kg; in [21] (Intravenous), 155 mg/kg.

For `CCC(=O)OC1C(OC2C(CC=O)CC(C)C(=O)C=CC3(C)OC3C(C)C(CC)OC(=O)CC(O)C2C)OC(C)CC1N(C)C` (centres unmarked) [Antibiotic 67-694 2'-Propionate Phosphate Salt], the “potency (bioassay)” value in data set [17] (Phosphate Salt) came out at 915 µg/mg.

`CCCCCCCCCCCCCCCCCC(=O)OC1C(OC2C(CC=O)CC(C)C(=O)C=CC3(C)OC3C(C)C(CC)OC(=O)CC(O)C2C)OC(C)CC1N(C)C` (centres unmarked) [Antibiotic 67-694 2'-stearate, Antibiotic 67-694 2'-Stearate]: in data set [17], the “potency (bioassay)” value is 585 µg/mg.

(Values after patent US4161523A, “Rosamicin esters, acid addition salts and methods for production thereof” (priority 1974, dated 1979).)
